Assays:
TycA = target: T1, TycA (Brevibacillus parabrevis, UniProt P09095); experiment: CoA ligase reaction kinetics, TycA; assay type: biochemical, Brevibacillus brevis; conditions: for kcat^CoA: turnover with CoA at apparent saturation
T1 construct: this wild-type tycA cDNA encoding the A-, T-, and E-domains was subcloned into a pSU18 vector; made in house; host or cells: Escherichia coli BL21(DE3)
T1 sequence (P09095 with tags, fused parts or gaps): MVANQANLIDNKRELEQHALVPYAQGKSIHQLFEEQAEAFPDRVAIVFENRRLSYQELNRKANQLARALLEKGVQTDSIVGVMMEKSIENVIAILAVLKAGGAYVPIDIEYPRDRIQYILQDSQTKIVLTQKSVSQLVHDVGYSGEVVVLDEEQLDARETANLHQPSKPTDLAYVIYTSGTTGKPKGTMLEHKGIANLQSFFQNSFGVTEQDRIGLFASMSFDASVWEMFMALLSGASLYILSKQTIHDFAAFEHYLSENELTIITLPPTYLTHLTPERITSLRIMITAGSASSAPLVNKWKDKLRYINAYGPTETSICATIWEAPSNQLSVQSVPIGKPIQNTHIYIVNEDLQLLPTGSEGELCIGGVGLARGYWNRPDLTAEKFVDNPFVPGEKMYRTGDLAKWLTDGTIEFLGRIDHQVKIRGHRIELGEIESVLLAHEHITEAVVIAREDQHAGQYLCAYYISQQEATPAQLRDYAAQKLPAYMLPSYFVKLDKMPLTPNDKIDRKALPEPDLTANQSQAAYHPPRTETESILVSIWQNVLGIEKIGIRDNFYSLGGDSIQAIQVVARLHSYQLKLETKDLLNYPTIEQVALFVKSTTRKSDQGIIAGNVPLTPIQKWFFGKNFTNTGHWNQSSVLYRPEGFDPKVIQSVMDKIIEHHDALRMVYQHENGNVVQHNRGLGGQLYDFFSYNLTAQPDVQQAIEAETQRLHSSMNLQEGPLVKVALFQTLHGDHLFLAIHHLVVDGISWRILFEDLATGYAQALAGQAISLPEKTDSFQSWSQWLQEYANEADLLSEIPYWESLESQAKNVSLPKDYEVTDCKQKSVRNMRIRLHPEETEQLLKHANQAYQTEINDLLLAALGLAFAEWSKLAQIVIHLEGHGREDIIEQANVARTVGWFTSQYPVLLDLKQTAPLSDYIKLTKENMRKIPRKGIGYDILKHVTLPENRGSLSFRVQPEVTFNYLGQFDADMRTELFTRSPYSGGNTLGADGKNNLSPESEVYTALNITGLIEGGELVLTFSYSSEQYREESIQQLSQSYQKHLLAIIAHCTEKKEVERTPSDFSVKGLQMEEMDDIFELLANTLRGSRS
Protocol: (§1) Under steady-state conditions, (S)-α-phenylalanine, (R)-β-phenylalanine, and (2R,3S)-phenylisoserine at 5, 10, 20, 40, 80, 160, 250, 500, 1000 and 2000 μM were separately incubated with TycA or TycA-S563A (20 μg) for 30 min. At the end of each reaction, and prior to mass spectrometry analysis, acetyl CoA (1 μM) was added as the internal standard to each sample to correct for variations of the analyte. The products of the enzyme-catalyzed reaction were quantified by a liquid chromatography multiple reaction monitoring (LC-ESI-MRM) mass spectrometry technique (Anderson & Hunter, Mol. Cell. Proteomics 5: 573-588 (2006)) on the Quattro-Premier Electro-Spray Mass Spectrometer coupled with Acquity® UPLC system fitted with a C18 Ascentis Express column (2.5×50 mm, 2.7 μm) at 30° C. An aliquot (5 μL) of each sample was loaded onto the column and the analytes were eluted with a solvent gradient of acetonitrile (Solvent A) in 0.05% triethylamine in distilled water (Solvent B). Elution was held at 2.5% Solvent A for 3.17 min, increased to 100% Solvent A over 5 sec with a 2-min hold, and then returned to 2.5% Solvent A over 5 sec with a 50-sec hold. The flow rate employed was 0.4 mL/min. The effluent from the chromatography column was directed to the mass spectrometer where the first quadrupole mass analyzer (in negative ion mode) was set to select for the molecular ion of a biosynthesized acyl CoA product. The selected ion was then directed to a collision gas chamber where the collision energy was optimized to maximize the abundance of a single signature fragment ion (m/z 408, characteristic of acyl CoA thioesters) resolved in the second quadrupole mass analyzer by the MRM method. The peak area under the curve of fragment ion m/z 408 for each biosynthetic phenylpropionyl CoA thioester was converted to concentration by comparing the peak area of the same ion produced by authentic CoA (at 0.05, 0.1, 0.2, 0.4, 0.8, 1.6, 3.2, 6.4, 12.5, 25, 50, 100 μM) using linear regression analysis.
(§2) The KM values of TycA and TycA-S563A for CoA were assessed by incubating each enzyme separately with (S)-α-phenylalanine (1 mM), MgCl2 (3 mM), ATP (1 mM), and CoA at 0.05, 0.1, 0.2, 0.4, 0.8, 1.6, 3.2, 6.4, 12.8 and 25.6 mM at 31° C. for 20 min. At the end of each reaction and prior to mass spectrometry analysis, acetyl CoA (1 μM) was added as the internal standard to each sample to correct for variations of the analyte. The products of the enzyme-catalyzed reaction were quantified by LC-ESI-MRM, and the monitored fragment ion (m/z 408) derived from the CoA moiety of the thioester analytes in the effluent was quantified identically to the procedure described earlier herein.

TycA-S563A = TycA-S563A (Brevibacillus parabrevis, UniProt P09095, S563A); conditions: CoA with (S)-α-Phe as cosubstrate; for kcat^CoA: turnover with CoA at apparent saturation
Protocol: as §1, with “The selected ion was then directed to a collision gas chamber where the collision energy was optimized to maximize the abundance of a single signature fragment ion (m/z 408, characteristic of acyl CoA thioesters) resolved in the second quadrupole mass analyzer by the MRM method. The peak area under the curve of fragment ion m/z 408 for each biosynthetic phenylpropionyl CoA thioester was converted to concentration by comparing the peak area of the same ion produced by authentic CoA (at 0.05, 0.1, 0.2, 0.4, 0.8, 1.6, 3.2, 6.4, 12.5, 25, 50, 100 μM) using linear regression analysis.” left out
as §2, with “At the end of each reaction and prior to mass spectrometry analysis, acetyl CoA (1 μM) was added as the internal standard to each sample to correct for variations of the analyte.” left out

[1] = TycA, CoA with (S)-α-Phe as cosubstrate

N[C@@H](c1ccccc1)[C@@H](O)C(=O)O [(2R,3S)-PheIso, (2R,3S)-phenylisoserine]
Km (TycA; TycA, CoA 1 mM, ATP 1 mM, MgCl2 3 mM, 31° C., CoA with (S)-α-Phe as cosubstrate): 89.3 ± 15 µM | kcat^CoA (TycA; [1]): 0.00417 ± 0.00033 s⁻¹ | Km (TycA-S563A; CoA 1 mM, ATP 1 mM, MgCl2 3 mM, 31° C.): 191 ± 10 µM | kcat^CoA (TycA-S563A): 0.00717 ± 0.00017 s⁻¹

N[C@H](CC(=O)O)c1ccccc1 [(R)-β-Phe, (R)-β-phenylalanine]
catalytic preference of TycA, higher than for (2R,3S)-Phenylisoserine (TycA; TycA with CoA): 10 fold | catalytic preference of TycA, higher than for (S)-α-Phe (TycA; TycA with CoA): 5 fold | kcat^CoA (TycA; [1]): 0.0267 ± 0.005 s⁻¹ | kcat^CoA (TycA-S563A): 0.05 ± 0.00067 s⁻¹

— US20170342451A1, “BIOSYNTHESIS OF PACLITAXEL INTERMEDIATE” (Board of Trustees of Michigan State University, priority 2012, published 2017)
